Test [1] has as its system super sensitive Gram-negative Escherichia coli (E. coli) BAS849. Kind of test: Antibacterial activity, microbroth dilution MIC, E. coli BAS849. The conditions noted are these: Escherichia coli; E. coli BAS849, microbroth dilution; read-out: MIC, BAS849. The format is cell-based. A general note: Dilution methods test growth across graded concentrations, often in twofold steps.

Test [2] has as its system Gram-positive Staphylococcus aureus (S. aureus) 29213. The test is described as follows: Antibacterial activity, microbroth dilution MIC, S. aureus 29213. The format is cell-based. The conditions noted are these: Staphylococcus aureus; S. aureus 29213, microbroth dilution; read-out: MIC, 29213.
In test [3] the test system is control Gram-negative E. coli 25922 strain. Kind of test: Antibacterial activity, microbroth dilution MIC, E. coli 25922. The format is cell-based, Escherichia coli. The conditions noted are these: Escherichia coli; E. coli 25922, microbroth dilution; read-out: MIC, 25922.

Values after ≈ are worked out from the molar mass of the structure shown.

Take `O=C(O)c1cc(C(=O)O)c(=O)[nH]c1-c1ccc(F)cc1` [Cpd 10, 6-(4-fluorophenyl)-2-oxo-1,2-dihydropyridine-3,5-dicarboxylic acid]: the MIC in test [1], in test [2] and in test [3] was 12.5 to 150 µg/mL (≈ 45.1 to 541 µM) throughout.
Regarding `CCc1cc(C(=O)O)c(=O)[nH]c1-c1ccc(C#N)cc1` [Cpd 15, 6-(4-cyanophenyl)-5-ethyl-2-oxo-1,2-dihydropyridine-3-carboxylic acid], the MIC in test [1], in test [2] and in test [3] was 12.5 to 150 µg/mL (≈ 46.6 to 559 µM) throughout.
As to `CCc1cc(C(=O)O)c(=O)[nH]c1-c1cnc(N(C)C)nc1` [Cpd 19, 6-[2-(dimethylamino)pyrimidin-5-yl]-5-ethyl-2-oxo-1,2-dihydropyridine-3-carboxylic acid], the MIC in test [1], in test [2] and in test [3] was 12.5 to 150 µg/mL (≈ 43.4 to 520 µM) throughout.
Turning to `O=C(O)c1c(O)cc(-c2ccc(N3CCCC3)cc2)[nH]c1=O` [Cpd 21, 4-hydroxy-2-oxo-6-[4-(pyrrolidin-1-yl)phenyl]-1,2-dihydropyridine-3-carboxylic acid], the MIC in test [1] was 3.5 to 12.5 µg/mL (≈ 11.7 to 41.6 µM); in test [2] it was 3.5 to 12.5 µg/mL (≈ 11.7 to 41.6 µM); in test [3] it was 12.5 to 150 µg/mL (≈ 41.6 to 499 µM).
For the compound `CCc1cc(C(=O)O)c(=O)[nH]c1-c1ccc(-c2nnn[nH]2)cc1` [Cpd 23, 5-ethyl-2-oxo-6-[4-(1H-tetrazol-5-yl)phenyl]-1,2-dihydropyridine-3-carboxylic acid], the MIC in test [1], in test [2] and in test [3] was 12.5 to 150 µg/mL (≈ 40.2 to 482 µM) in each case.
Take `CCc1cc(C(=O)O)c(=O)[nH]c1-c1ccc(F)cc1` [Cpd 26, 5-ethyl-6-(4-fluorophenyl)-2-oxo-1,2-dihydropyridine-3-carboxylic acid]: the MIC in test [1], in test [2] and in test [3] was 12.5 to 150 µg/mL (≈ 47.8 to 574 µM) in each case.
Consider `CCc1cc(C(=O)O)c(=O)[nH]c1-c1ccc(C)cc1` [Cpd 27, 5-ethyl-6-(4-methylphenyl)-2-oxo-1,2-dihydropyridine-3-carboxylic acid], for which the MIC in test [1] is less than 1 µg/mL; in test [2], 12.5 to 150 µg/mL (≈ 48.6 to 583 µM); in test [3], 12.5 to 150 µg/mL (≈ 48.6 to 583 µM).
On to `CCc1c(-c2ccc(C)cc2)[nH]c(=O)c(C(=O)O)c1O` [Cpd 28, 5-ethyl-4-hydroxy-6-(4-methylphenyl)-2-oxo-1,2-dihydropyridine-3-carboxylic acid], for which the MIC in test [1] is less than 1 µg/mL; in test [2], 3.5 to 12.5 µg/mL (≈ 12.8 to 45.7 µM); in test [3], 12.5 to 150 µg/mL (≈ 45.7 to 549 µM).
On the same counts, the results for `CCc1c(-c2ccccc2N2CCCCC2)[nH]c(=O)c(C(=O)O)c1O` [Cpd 29, 5-ethyl-4-hydroxy-2-oxo-6-[2-(piperidin-1-yl)phenyl]-1,2-dihydropyridine-3-carboxylic acid] are 1 to 3.5 µg/mL (≈ 2.92 to 10.2 µM), 1 to 3.5 µg/mL (≈ 2.92 to 10.2 µM) and 12.5 to 150 µg/mL (≈ 36.5 to 438 µM).
On the same counts, the results for `CCc1cc(C(=O)O)c(=O)[nH]c1-c1ccccc1N1CCCCC1` [Cpd 31, 5-ethyl-2-oxo-6-[2-(piperidin-1-yl)phenyl]-1,2-dihydropyridine-3-carboxylic acid] are 12.5 to 150 µg/mL (≈ 38.3 to 460 µM), 12.5 to 150 µg/mL (≈ 38.3 to 460 µM) and 12.5 to 150 µg/mL (≈ 38.3 to 460 µM).
As for `CCc1c(-c2ccc(OC)cc2C)[nH]c(=O)c(C(=O)O)c1O` [Cpd 32, 5-ethyl-4-hydroxy-6-(4-methoxy-2-methylphenyl)-2-oxo-1,2-dihydropyridine-3-carboxylic acid], the MIC in test [1] was in the range of 3.5 to 12.5 µg/mL (≈ 11.5 to 41.2 µM); in test [2] it was 3.5 to 12.5 µg/mL (≈ 11.5 to 41.2 µM); in test [3], 12.5 to 150 µg/mL (≈ 41.2 to 495 µM).
As to `CCc1cc(C(=O)O)c(=O)[nH]c1-c1ccc(OC)cc1C` [Cpd 33, 5-ethyl-6-(4-methoxy-2-methylphenyl)-2-oxo-1,2-dihydropyridine-3-carboxylic acid], the MIC in test [1], in test [2] and in test [3] was 12.5 to 150 µg/mL (≈ 43.5 to 522 µM) throughout.
For `CCc1cc(C(=O)O)c(=O)[nH]c1-c1ccc(OC)cc1OC` [Cpd 34, 6-(2,4-dimethoxyphenyl)-5-ethyl-2-oxo-1,2-dihydropyridine-3-carboxylic acid], the MIC in test [1], in test [2] and in test [3] was 12.5 to 150 µg/mL (≈ 41.2 to 495 µM) throughout.

One may read the MIC as the lowest concentration that inhibits growth of the organism.
